These are literature values, as cited in US7217837B2, “Method for producing organic acid” (Mitsubishi Chemical Corporation, priority 2002, dated 2007).

SMILES strings stand for the structures.

The conditions of data set [1]: Table 1; literature values.
For data set [2] the following is noted: water, Table 1, literature values.
For data set [3] the following is noted: Table 1; for pKa1: literature values (Pyne Organic Chemistry; Handbook of Chemistry and Physics); for pKa2: literature values.

For `NC(=O)C[C@H](N)C(=O)O` [Asparagine], the “Isoelectric point pI” value in data set [1] was 5.41. For the same compound, the “Solubility at 25° C.” value in data set [2] is on record as 3.11 g/100 gH2O. In addition, in data set [3], the pKa1 is 2.02.

`N[C@@H](CC(=O)O)C(=O)O` [Aspartic acid]: the “Isoelectric point pI” value in data set [1] is given as 2.98.

For `N[C@@H](CCC(=O)O)C(=O)O` [Glutamic acid], the “Isoelectric point pI” value in data set [1] is listed as 3.08.

Consider `NC(=O)CC[C@H](N)C(=O)O` [Glutamine], for which, in data set [2], the “Solubility at 25° C.” value is recorded as 3.6 g/100 gH2O.

With `O=C(O)CCCC(=O)O` [Glutaric acid], in data set [3], the pKa2 is given as 5.41 and the pKa1 is 4.31.

`N[C@@H](Cc1c[nH]cn1)C(=O)O` [Histidine]: the “Isoelectric point pI” value in data set [1] is 7.64. In addition, the “Solubility at 25° C.” value in data set [2] is 4.29 g/100 gH2O.

Take `CC[C@H](C)[C@H](N)C(=O)O` [Isoleucine]: the “Isoelectric point pI” value in data set [1] is reported as 6.04. Further, in data set [2], the “Solubility at 25° C.” value is listed as 4.117 g/100 gH2O. Moreover, the pKa1 in data set [3] is 2.32.

On to `CC(C)C[C@H](N)C(=O)O` [Leucine], for which the “Solubility at 25° C.” value in data set [2] is 2.19 g/100 gH2O.

Take `O=C(O)CC(O)C(=O)O` (stereo not drawn) [Malic acid]: in data set [3], the pKa2 is on record as 5.11 and the pKa1 is given as 3.40.

For the compound `CSCC[C@H](N)C(=O)O` [Methionine], in data set [1], the “Isoelectric point pI” value is 5.74. Also, the “Solubility at 25° C.” value in data set [2] is 3.35 g/100 gH2O. Further, the pKa1 in data set [3] is on record as 2.28.

In the case of `N[C@@H](Cc1ccccc1)C(=O)O` [Phenylalanine], in data set [1], the “Isoelectric point pI” value is reported as 5.91. In data set [2], the “Solubility at 25° C.” value is given as 2.965 g/100 gH2O. For the same compound, the pKa1 in data set [3] was 2.58.

As for `O=C(O)CCCCCCC(=O)O` [Suberic acid], the pKa1 in data set [3] is given as 4.52.

As to `N[C@@H](Cc1c[nH]c2ccccc12)C(=O)O` [Tryptophan], in data set [1], the “Isoelectric point pI” value was 5.88. Further, the “Solubility at 25° C.” value in data set [2] was 1.14 g/100 gH2O. In data set [3], the pKa1 is recorded as 2.38.

`N[C@@H](Cc1ccc(O)cc1)C(=O)O` [Tyrosine]: the “Isoelectric point pI” value in data set [1] is 5.66.

`CC(C)[C@H](N)C(=O)O` [Valine]: in data set [1], the “Isoelectric point pI” value is 6. In data set [2], the “Solubility at 25° C.” value was 8.85 g/100 gH2O. Also, the pKa1 in data set [3] is given as 2.29.
